Reference: patent US7479497B2, “Use of quinoline derivatives with anti-integrase effect and applications thereof” (priority 2002, dated 2009)

How the values were obtained:
viral DNA = assay: Quantification of total viral DNA synthesized and of DNA integrated into the host cell genome after infection (Butler et al.); assay type: cell-based; details: FIG. 1
Procedure: FIG. 1, the quantification of the total viral DNA synthesized 6 hours after infection and the quantity of viral DNA integrated into the genome 8 hours after infection, and
Study of the Quantification of the Total Viral DNA Synthesized and of the DNA Integrated into the Genome of a Host Cell after Infection
The operation described by Butler et al. in Nat. Med. 2001 May; 7 (5): 631-4 is carried out.

virus = details: integrase mutations at V165 and V249, and at C280 for a second virus
integrase of HIV-1 = target: T1, integrase of HIV-1 (Human immunodeficiency virus type 1 group M subtype B, UniProt P04585); assay: Nuclear import test on the integrase of HIV-1 in permeabilized HeLa cells; assay type: cell-based; details: 30 minutes at 30° C., FIGS. 5 and 6
T1 construct: incubated for 30 minutes at 30° C. with integrase coupled with Cyanine 3 fluorochrome
Procedure: FIGS. 5 and 6 show the quantification of the fluorescence intensity measured in a nuclear import test on the integrase of HIV-1 in permeabilized HeLa cells in the presence or absence of cytoplasmic extracts.
The import tests in FIG. 5 were carried out as described in Depienne et al. 2001. HeLa cells were permeabilized with Digitonin, then incubated for 30 minutes at 30° C. with integrase coupled with Cyanine 3 fluorochrome in the presence of energy, in the absence of cytosolic extracts and in the presence or absence of increasing concentrations of different molecules as indicated. The cells were then fixed, analyzed by epifluorescence microscopy and acquisitions were carried out with a CCD camera.
For each condition, the fluorescence intensity per surface unit was quantified in 150 to 300 nuclei originating from 3 independent experiments.
The data of FIGS. 6 and 7 were obtained as follows: HeLa cells were permeabilized with digitonin, then incubated for 30 minutes at 30° C. with integrase conjugated to Cyanine 3 fluorochrome and with bovine serum albumin (BSA) conjugated to the standard nuclear localization signal of the T antigen of the SV40 virus (NLS) and with fluorescein (BSA-NLS), in the presence of cytosolic extracts and energy and in the presence or in the absence of increasing concentrations of different molecules as indicated. […]

integrase = integrase (Human immunodeficiency virus type 1 group M subtype B, UniProt P04585); assay: Integrase inhibitor in vitro; assay type: biochemical

COc1cc(/C=C/c2ccc3ccc(C(=O)[O-])c(O)c3n2)cc(O)c1O.[Na+] [FZ41, 8-hydroxy-2-[2-[(3,4-dihydroxy,5-methoxyphenyl)ethenyl]]7-quinoline carboxylic acid]
total viral DNA synthesized (viral DNA; 6 hours after infection): strong reduction | viral DNA integrated into the genome (viral DNA; 8 hours after infection): strong reduction | emergence of resistant viruses (virus): emergence of viruses resistant to the drug | nuclear import of integrase (fluorescence in the nuclei of permeabilized cells) (integrase of HIV-1): considerably reduce | Integrase inhibitor in vitro (integrase): YES
